{
  "source": "patent EP0535804A1",
  "about": "“Peptide compounds” (HITACHI CHEMICAL CO., LTD., priority 1991, dated 1993)",
  "key": {"[1]": {"tested_on": "human endothelin 1", "test": "Enzymeimmuno competitive inhibition assay of endothelin 1 binding to peptide resin", "settings": "3 hours at room temperature", "protocol": "After blocking those sites susceptible to nonspecific adsorption on the peptide resin obtained in (2) above with 0.2% skim milk solution, the peptide resin was immersed in 200 µl of human endothelin 1 solution (0.2 µg/ml) (prepared by dissolving in Dalbecco's phosphate buffered biological saline containing 0.1% skim milk and 0.1 % Tween 20). After allowing to react for 3 hours at room temperature while stirring gently, the resulting solution was used as sample solution (i).\nSeparate from the above, the wells of an ELISA microplate were coated overnight at 4°C with 200 µl of human endothelin 1 solution (1 wg/ml). […]\nAfter washing the human endothelin 1 coated plate (ii) with washing buffer (Dalbecco's phosphate buffered biological saline containing 0.1% Tween), 50 µl of sample solution (i) was added followed immediately by the addition of 200 µl of anti-human endothelin 1 rabbit antibody solution (using Dalbecco's phosphate buffered biological saline containing 0.1% skim milk and 0.1% Tween as the dilution buffer). […] After similarly washing the plate and adding 200 µl of substrate solution (1 mg p-nitrophenyl phosphate/ml 1M diethanolamine buffer), the amount of p-nitrophenol released by the labelled enzyme present on the plate was determined by measuring the absorbance at 405 nm. […]"}, "[2]": {"tested_on": "human endothelin 1", "test": "Binding activity of radioactive ligand (125I-human endothelin 1) to peptide resin", "settings": "125I-human endothelin 1 solution 0.131 ng/ml, 2 hours at room temperature, gamma counter", "protocol": "After blocking the sites susceptible to adsorption on the peptide resin obtained in (2) above with 0.2% skim milk solution, the peptide was suspended in 100 ml of ^1251-human endothelin 1 (specific activity: 74 TBq- /mmol) solution (0.131 ng/ml) (prepared by dissolving in Dalbecco's phosphate buffered biological saline containing 0.1 % skim milk and 0.1 % Tween) and allowed to react for 2 hours at room temperature. Following the binding reaction, the peptide resin was thoroughly washed with washing buffer (Dalbecco's phosphate buffered biological saline containing 0.1 % Tween), and the radioactivity bound to the peptide resin was measured with a gamma counter."}},
  "note": "Ends that are not written are not given here.",
  "data": [
    {"substance": "KRGFPP", "values": [
      {"measurement": "inhibitory activity", "setting": "[1]; decrease of endothelin 1 antigen activity after binding to peptide resin pins, 0.2 µg/ml", "result": 21.1, "unit": "%"},
      {"measurement": "antigen activity of human endothelin 1 in said sample solution (i)", "setting": "[1]; remaining relative to before the binding reaction to the peptide resin pins, endothelin 1 solution 0.2 µg/ml, 200 µl", "result": 78.9, "unit": "%"},
      {"measurement": "amount of human endothelin 1 bound to the peptide resin", "setting": "[2]", "result": 5.18, "unit": "pg"}
    ]}
  ]
}
